According to patent publication US9732094B2, “Arylquinazolines” (Merck Patent GmbH, priority 2013, dated 2017):
pIC50, pKi: −log10 of the molar value.

How the values were obtained:
DNA-PK = DNA-PK (Homo sapiens (Human), UniProt P78527); test: DNA-PK assay (biochemical), flashplate 33P-ATP kinase assay; conditions: biochemical DNA-PK assay
In short: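 Reactions ran in streptavidin-coated flashplates and were halted by 200 mM EDTA, with a further 30 min at room temperature before saline washing.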

[1] = molecular target: DNA-PK phosphorylation at serine 2056 (Homo sapiens (Human), UniProt P78527); test: DNA-PK phosphorylation at serine 2056 (cellular), bleomycin-treated HCT116 cells, ELISA; assay type: cell-based; conditions: cellular DNA-PK phosphorylation at serine 2056, HCT116; read-out: IC50 pDNA-PK
In short: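 HCT116, MEM alpha + 10% FCS, 37 °C/10% CO2, seeded o/n. Cpd + 10 μM bleomycin, 6 h. ELISA, chemiluminescence; phospho/total DNA-PKcs ratio, DMSO = blank.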

Kv11.1 (hERG) [2] = molecular target: T1, Kv11.1 (hERG) (Homo sapiens (Human), UniProt Q12809); test: Kv11.1 ion channel binding assay (Predictor hERG fluorescence polarisation); conditions: cells marked *: measured using hERG binding assay instead of hERG patch clamp assay; read-out: Ki [Kv1.11 hERG]
T1 sequence (Q12809 whole entry): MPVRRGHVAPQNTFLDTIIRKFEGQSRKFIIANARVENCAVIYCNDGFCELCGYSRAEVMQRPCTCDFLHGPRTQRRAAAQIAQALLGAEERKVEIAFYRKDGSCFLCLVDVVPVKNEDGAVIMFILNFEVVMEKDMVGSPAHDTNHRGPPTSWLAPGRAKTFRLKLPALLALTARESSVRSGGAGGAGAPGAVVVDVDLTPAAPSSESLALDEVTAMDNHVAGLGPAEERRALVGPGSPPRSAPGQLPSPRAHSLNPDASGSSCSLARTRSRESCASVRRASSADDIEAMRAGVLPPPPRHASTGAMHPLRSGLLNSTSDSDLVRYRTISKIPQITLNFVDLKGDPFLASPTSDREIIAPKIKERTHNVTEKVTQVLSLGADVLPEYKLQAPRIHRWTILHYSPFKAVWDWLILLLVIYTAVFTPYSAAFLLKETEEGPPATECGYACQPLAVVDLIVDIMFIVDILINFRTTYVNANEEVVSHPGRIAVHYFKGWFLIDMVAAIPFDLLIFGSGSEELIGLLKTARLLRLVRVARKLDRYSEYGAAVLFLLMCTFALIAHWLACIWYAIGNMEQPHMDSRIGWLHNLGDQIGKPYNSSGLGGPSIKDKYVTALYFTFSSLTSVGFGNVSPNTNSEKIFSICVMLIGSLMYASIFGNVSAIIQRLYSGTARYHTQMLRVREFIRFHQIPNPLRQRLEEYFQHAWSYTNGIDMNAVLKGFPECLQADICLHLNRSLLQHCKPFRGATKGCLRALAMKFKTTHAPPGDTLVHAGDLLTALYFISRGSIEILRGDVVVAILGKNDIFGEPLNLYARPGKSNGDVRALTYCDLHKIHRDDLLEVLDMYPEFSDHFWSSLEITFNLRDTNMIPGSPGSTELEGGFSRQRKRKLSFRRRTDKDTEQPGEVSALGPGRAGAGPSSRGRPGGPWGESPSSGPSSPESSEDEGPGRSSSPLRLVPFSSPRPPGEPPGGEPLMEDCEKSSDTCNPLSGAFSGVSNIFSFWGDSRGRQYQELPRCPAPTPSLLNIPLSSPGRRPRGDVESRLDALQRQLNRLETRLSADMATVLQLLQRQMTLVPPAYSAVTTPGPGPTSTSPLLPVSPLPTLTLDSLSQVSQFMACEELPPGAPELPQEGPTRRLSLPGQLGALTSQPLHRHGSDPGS
Procedure: D) Kv11.1 Ion Channel Binding Assay
Kv11.1 (hERG=human ether a go-go related […]) is a cardiac K^+ channel which should if possible not interact with the test substances. This interaction is determined quantitatively with the aid of the Predictor™ hERG Fluorescence Polarizations (FP) Assays from Life Technologies. In the case of this assay principle, cardiomyocyte cell membranes having a certain proportion of Kv11.1 channels are isolated. A dye-labelled Kv11.1 binding partner gives a high fluorescence polarisation signal by interaction with the Kv11.1. In the case of displacement of the dye, a reduction in the fluorescence polarisation signal occurs.
The assay is carried out automatically as follows: 15 nl of the test substances (highest concentration: 10 mM, 10 concentrations: dilution factors 1:3.16, DMSO) are transferred into an empty microtitre plates having 384 wells by means of an acoustic pipetter. 3 μl of the isolated membranes are subsequently added. Membranes and test substances are incubated at 22° C. for 15 min (+/−5 min). In the next step, the dye-labelled binding partner is added, followed by incubation at 22° C. After incubation for two hours, the measurement of the fluorescence polarisation is carried out on an Envision multimode Reader. Measured raw data are standardised with the aid of Genedata Assay Analyzer. The 1050 and % effect values are calculated in Genedata Condoseo.

Kv11.1 (hERG) [3] = molecular target: T1, Kv11.1 (hERG); test: Kv11.1 (hERG) ion channel activity (patch clamp assay), HEK293 cells transfected with hERG gene; conditions: hERG patch clamp assay (cells without asterisk)

SMILES | pIC50 (DNA-PK) | pIC50 [1] | pKi (Kv11.1 (hERG) [2]) | pKi (Kv11.1 (hERG) [3]; Ki [Kv1.11 hERG]) | pKi (Kv11.1 (hERG) [3]; read-out: Ki [Kv1.11 hERG])
COc1nccnc1C(O)c1ccc(F)c(-c2ncnc3cc(N4CCOCC4)cc(F)c23)c1 (single isomer, unassigned) [Example 252, [4-Fluoro-3-(5-fluoro-7-morpholin-4-yl-quinazolin-4-yl)-phenyl]-(3-methoxy-pyrazin-2-yl)-methanol] | > 8.52 | > 6.30 | < 4.60 | – | –
[2H]C1([2H])OC([2H])([2H])C([2H])([2H])N(c2ccc3c(-c4cc(C(O)c5ccc(OC)nn5)c(Cl)cc4F)ncnc3c2)C1([2H])[2H] (single isomer, unassigned) [Example 262, [2-Chloro-4-fluoro-5-[7-(2,2,3,3,5,5,6,6-octadeuteriomorpholin-4-yl)quinazolin-4-yl]phenyl]-(6-methoxypyridazin-3-yl)methanol] | – | – | < 4.60 | – | –
COc1ccc(C(O)c2cc(-c3ncnc4cc(N5CCOCC5)cc(F)c34)c(F)cc2Cl)nn1 (single isomer, unassigned) [Example 263, [2-Chloro-4-fluoro-5-(5-fluoro-7-morpholin-4-yl-quinazolin-4-yl)-phenyl]-(6-methoxy-pyridazin-3-yl)-methanol] | 7.52 to 8.15 | 4.52 to 5.00 | < 4.60 | – | –
CNC(=O)C(c1ccc(F)c(-c2ncnc3cc(N4CCOCC4)ccc23)c1)c1ncccc1Cl (stereo not drawn) [Example 230, 2-(3-Chloro-pyridin-2-yl)-2-[4-fluoro-3-(7-morpholin-4-yl-quinazolin-4-yl)-phenyl]-N-methyl-acetamide] | 7.52 to 8.15 | 5.00 to 5.30 | 4.60 to 4.82 | – | –
Fc1cc(Cl)c(Cc2ccc3nccn3n2)cc1-c1ncnc2cc(N3CCOCC3)ccc12 [Example 235, 4-(4-Chloro-2-fluoro-5-imidazo[1,2-b]-pyridazin-6-ylmethyl - phenyl)-7-morpholin-4-ylquinazoline] | > 8.52 | > 6.30 | < 4.60 | – | –
CNC(=O)C(c1ccc2nccn2n1)c1cc(-c2ncnc3cc(N4CCOCC4)ccc23)c(F)cc1Cl (stereo not drawn) [Example 236, 2-[2-Chloro-4-fluoro-5-(7-morpholin-4-yl-quinazolin-4-yl)-phenyl]-2-imidazo-[1,2-b]pyridazin-6-yl-N-methylacetamide] | < 7.52 | 5.00 to 5.30 | < 4.60 | – | –
Cc1nccnc1C(O)c1ccc(F)c(-c2ncnc3cc(N4CCOCC4)sc23)c1 (stereo not drawn) [Example 245, [4-Fluoro-3-(6-morpholin-4-yl-thieno[3,2-d}-pyrimidin-4-yl)-phenyl]-(3-methyl-pyrazin-2-yl)-methanol] | > 8.52 | > 6.30 | < 4.60 | – | –
COC(c1ccc(F)c(-c2ncnc3cc(N4CCOCC4)ccc23)c1)c1nccnc1C (stereo not drawn) [Example 352, 4-{2-Fluoro-5-[methoxy-(3-methyl-pyrazin-2-yl)methyl]-phenyl}-7-morpholin-4-ylquinazoline] | < 7.52 | – | < 4.60 | – | –
COc1ccc(C(O)c2cc(-c3ncnc4cc(N5CCOCC5)ccc34)ccc2Cl)nn1 (stereo not drawn) [Example 458, [2-Chloro-5-(7-morpholin-4-yl-quinazolin-4-yl)-phenyl]-(6-methoxy-pyridazin-3-yl)-methanol] | > 8.52 | > 6.30 | – | 4.82 to 5.00 | –
CCOc1cccnc1C(O)c1ccc(F)c(-c2ncnc3cc(N4CCOCC4)ccc23)c1 (stereo not drawn) [Example 463, (3-Ethoxy-pyridin-2-yl)-[4-fluoro-3-(7-morpholin-4-yl-quinazolin-4-yl)-phenyl]methanol] | 8.15 to 8.52 | > 6.30 | – | 4.60 to 4.82 | –
OC(c1ccc(F)c(-c2ncnc3cc(N4CCOCC4)ccc23)c1)c1nccnc1OC(F)F (stereo not drawn) [Example 464, (3-Difluoromethoxy-pyrazin-2-yl)-[4-fluoro-3-(7-morpholin-4-yl-quinazolin-4-yl)-phenyl]methanol] | 8.15 to 8.52 | 5.30 to 6.30 | – | 4.60 to 4.82 | –
OC(c1ccc(F)c(-c2ncnc3cc(N4CCOCC4)ccc23)c1)c1ncccc1Cl (stereo not drawn) [Example 465, (3-Chloro-pyridin-2-yl)-[4-fluoro-3-(7-morpholin-4-yl-quinazolin-4-yl)-phenyl]methanol] | > 8.52 | > 6.30 | – | 4.60 to 4.82 | –
OC(c1ccc(F)c(-c2ncnc3cc(N4CCOCC4)ccc23)c1)c1ncccc1Cl (stereo not drawn) [Example 466, (3-Chloro-pyridin-2-yl)-[4-fluoro-3-(7-morpholin-4-yl-quinazolin-4-yl)-phenyl]methanol] | 7.52 to 8.15 | 5.30 to 6.30 | – | – | 4.60 to 4.82
COc1nccnc1C(O)c1cc(-c2ncnc3cc(N4CCOCC4)ccc23)c(F)cc1F (stereo not drawn) [Example 467, [2,4-Difluoro-5-(7-morpholin-4-yl-quinazolin-4-yl)-phenyl]-(3-methoxy-pyrazin-2-yl)-methanol] | 8.15 to 8.52 | > 6.30 | – | – | < 4.60
COc1nccnc1C(O)c1cc(-c2ncnc3cc(N4CCOCC4)ccc23)c(F)cc1Cl (stereo not drawn) [Example 468, [2-Chloro-4-fluoro-5-(7-morpholin-4-yl-quinazolin-4-yl)-phenyl]-(3-methoxy-pyrazin-2-yl)-methanol] | > 8.52 | > 6.30 | – | 4.60 to 4.82 | –
Cc1cccnc1C(O)c1ccc(F)c(-c2ncnc3cc(N4CCOCC4)ccc23)c1 (stereo not drawn) [Example 472, [4-Fluoro-3-(7-morpholin-4-yl-quinazolin-4-yl)-phenyl]-(3-methyl-pyridin-2-yl)methanol] | 8.15 to 8.52 | > 6.30 | – | – | < 4.60
COc1cnc(C(O)c2ccc(F)c(-c3ncnc4cc(N5CCOCC5)ccc34)c2)c(Br)c1 (stereo not drawn) [Example 473, (3-bromo-5-methoxy-pyridin-2-yl)-[4-fluoro-3-(7-morpholin-4-yl-quinazolin-4-yl)-phenyl]methanol] | 8.15 to 8.52 | > 6.30 | – | 4.60 to 4.82 | –
OC(c1cn2ccsc2n1)c1cc(-c2ncnc3cc(N4CCOCC4)ccc23)c(F)cc1F (stereo not drawn) [Example 474, [2,4-Difluoro-5-(7-morpholin-4-yl-quinazolin-4-yl)-phenyl]imidazo-[2,1-b]thiazol-6-yl-methanol] | < 7.52 | 4.52 to 5.00 | – | 4.82 to 5.00 | –
OC(c1ccc(F)c(-c2ncnc3cc(N4CCOCC4)ccc23)c1)c1ncccc1OC(F)(F)F (stereo not drawn) [Example 475, [4-Fluoro-3-(7-morpholin-4-yl-quinazolin-4-yl)-phenyl]-(3-trifluoro-methoxypyridin-2-yl)-methanol] | > 8.52 | > 6.30 | – | 4.60 to 4.82 | –
OC(c1ccc(F)c(-c2ncnc3cc(N4CCOCC4)ccc23)c1)c1nccnc1C(F)(F)F (stereo not drawn) [Example 476, [4-Fluoro-3-(7-morpholin-4-yl-quinazolin-4-yl)-phenyl]-(3-trifluoro-methylpyrazin-2-yl)-methanol] | 8.15 to 8.52 | > 6.30 | – | – | < 4.60
OC(c1ccc(F)c(-c2ncnc3cc(N4CCOCC4)ccc23)c1)c1ncccc1Br (stereo not drawn) [Example 478, (3-bromo-pyridin-2-yl)-[4-fluoro-3-(7-morpholin-4-yl-quinazolin-4-yl)-phenyl] methanol] | > 8.52 | > 6.30 | – | – | > 5.00
OC(c1cccnn1)c1cc(-c2ncnc3cc(N4CCOCC4)ccc23)ccc1Cl (stereo not drawn) [Example 479, (2-Chloro-5-(7-morpholin-4-yl-quinazolin-4-yl)-phenyl]pyridazin-3-yl-methanol] | 8.15 to 8.52 | > 6.30 | – | 4.60 to 4.82 | –
